{
  "source": "patent EP1215499A1",
  "about": "(priority 1999, dated 2001)",
  "type_in_all_cases": "biochemical",
  "key": {"miniplasmin [1]": {"molecular_target": "T1, miniplasmin (Homo sapiens, UniProt P00747)", "T1 construct": "38kDa (Kringle 5 + L chain); the 12kDa protein of human miniplasmin includes a kringle 5 that begins with V^441; host or cells: no expression host", "T1 sequence (P00747 481-560)": "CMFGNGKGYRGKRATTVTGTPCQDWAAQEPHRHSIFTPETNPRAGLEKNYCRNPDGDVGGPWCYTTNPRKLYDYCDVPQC", "T1 sequence (P00747 581-810)": "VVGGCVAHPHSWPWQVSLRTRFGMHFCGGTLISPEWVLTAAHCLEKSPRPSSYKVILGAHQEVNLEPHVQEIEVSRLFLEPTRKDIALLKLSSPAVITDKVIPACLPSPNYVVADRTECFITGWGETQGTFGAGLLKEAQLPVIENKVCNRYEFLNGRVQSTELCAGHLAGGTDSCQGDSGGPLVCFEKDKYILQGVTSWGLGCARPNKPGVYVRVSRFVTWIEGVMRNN", "assay": "Substrate specificity of human miniplasmin (cleavage of fluorescent MCA synthetic substrates)", "conditions": "for Activity (mU/ml): cleavage of the named substrate by human miniplasmin; for cleaving activity of miniplasmin toward the substrate: result in words", "procedure": "2. […] Miniplasmin cut the bond after Arg.\nNor did it toward Bz-Arg-MCA, a synthetic substrate for cathepsin B, which is one of lysosomal enzymes.\nThe activity of miniplasmin was quantified by defining the enzyme activity that can degrade […] of the synthetic substrate Boc-Glu-Ala-Arg-MCA in 1 minute as 1 unit."}, "miniplasmin [2]": {"molecular_target": "T1, miniplasmin", "assay": "Substrate specificity of human miniplasmin (cleavage of fluorescent MCA synthetic substrates)", "conditions": "Boc-Gln-Ala-Arg-MCA = 100%"}, "miniplasmin [3]": {"molecular_target": "T1, miniplasmin", "assay": "biochemical"}, "miniplasmin [4]": {"molecular_target": "T1, miniplasmin"}},
  "note": "*1 amine or outer side, *2 acyl side, *3 side chain or, on linkers, in order; H or OH if unused. Where a SMILES comes first, the peptide text is derived from it. [ ]: non-standard residue; d: D form. The star is where a group is joined. Sta = CC(C)C[C@H](N)[C@@H](O)CC(=O)O; AMC = Cc1cc(=O)oc2cc(N*)ccc12; Suc = O=C(CCC(=O)[*:2])[*:1]; Isovaleryl = CC(C)CC(=O)*; Boc = CC(C)(C)OC(=O)*",
  "data": [
    {"compound": "Boc-Ile-Gln-Gly-Arg-MCA (Boc-IQGR-{AMC})", "values": [
      {"measurement": "Activity (mU/ml)", "setting": "miniplasmin [1]", "result": 1.6, "unit": "mU/ml"},
      {"measurement": "cleaving activity of miniplasmin toward the substrate", "setting": "miniplasmin [1]", "result": "substantially no cleaving activity"},
      {"measurement": "% (Activity as a percentage of that with Boc-Gln-Ala-Arg-MCA)", "setting": "miniplasmin [2]", "result": 4.8, "unit": "%"}
    ]},
    {"compound": "Cc1cc(=O)oc2cc(NC(=O)[C@H](CCCNC(=N)N)NC(=O)c3ccccc3)ccc12", "note": "[Bz-Arg-MCA]", "values": [
      {"measurement": "Activity (mU/ml)", "setting": "miniplasmin [1]", "result": 0.0, "unit": "mU/ml"},
      {"measurement": "cleaving activity of miniplasmin toward the substrate", "setting": "miniplasmin [1]", "result": "substantially no cleaving activity"}
    ]},
    {"compound": "Cc1cc(=O)oc2cc(NC(=O)[C@H](CCCNC(=N)N)NC(=O)[C@H](Cc3ccccc3)NC(=O)[C@@H]3CCCN3)ccc12", "note": "[Pro-Phe-Arg-MCA] (H-Pro-Phe-Arg-{AMC})", "values": [
      {"measurement": "Activity (mU/ml)", "setting": "miniplasmin [1]", "result": 5.0, "unit": "mU/ml"}
    ]},
    {"compound": "Cc1cc(=O)oc2cc(NC(=O)[C@H](CCCNC(=N)N)NC(=O)[C@@H]3CCCN3C(=O)CNC(=O)[C@H](C)NC(=O)OC(C)(C)C)ccc12", "note": "[Boc-Ala-Gly-Pro-Arg-MCA] (Boc-AGPR-{AMC})", "values": [
      {"measurement": "Activity (mU/ml)", "setting": "miniplasmin [1]", "result": 2.5, "unit": "mU/ml"}
    ]},
    {"compound": "CC(=O)N[C@@H](CC(C)C)C(=O)N[C@@H](CC(C)C)C(=O)N[C@H](C=O)CCCNC(=N)N", "note": "[Leupeptin]", "values": [
      {"measurement": "inhibition mark (circle / double circle)", "setting": "miniplasmin [3]", "result": "ⓞ Leupeptin"},
      {"measurement": "activity at 10 µM", "setting": "miniplasmin [3]; read-out: Relative activity", "result": 18.6, "unit": "%"}
    ]},
    {"compound": "CC(C)C[C@H](NC(=O)N[C@H](C(=O)N[C@@H](CCC(N)=O)C(=O)N[C@@H](C)C=O)[C@@H]1CCNC(=N)N1)C(=O)O", "note": "[Elastatinal]", "values": [
      {"measurement": "activity at 10 µM", "setting": "miniplasmin [3]; read-out: Relative activity", "result": 69.2, "unit": "%"}
    ]},
    {"compound": "Cc1cc(=O)oc2cc(NC(=O)[C@H](Cc3ccc(O)cc3)NC(=O)[C@@H](NC(=O)[C@H](CC(C)C)NC(=O)[C@H](CC(C)C)NC(=O)CCC(=O)O)C(C)C)ccc12", "note": "[Suc-Leu-Leu-Val-Tyr-MCA] (Suc-LLVY-{AMC})", "values": [
      {"measurement": "Activity (mU/ml)", "setting": "miniplasmin [1]", "result": 0.0, "unit": "mU/ml"}
    ]},
    {"compound": "O=S(=O)(F)Cc1ccccc1", "note": "[Phenylmethylsulfonyl fluoride]", "values": [
      {"measurement": "inhibition mark (circle / double circle)", "setting": "miniplasmin [3]", "result": "○ Phenylmethylsulfonyl fluoride"},
      {"measurement": "Relative activity", "setting": "miniplasmin [3]; 1000 µM", "result": 95.1, "unit": "%"},
      {"measurement": "Relative activity", "setting": "miniplasmin [3]; 10000 µM", "result": 29.5, "unit": "%"}
    ]},
    {"compound": "Cc1cc(=O)oc2cc(NC(=O)[C@H](CCCNC(=N)N)NC(=O)[C@H](CCCNC(=N)N)NC(=O)[C@H](CC(C)C)NC(=O)OC(C)(C)C)ccc12", "note": "[Boc-Leu-Arg-Arg-MCA] (Boc-Leu-Arg-Arg-{AMC})", "values": [
      {"measurement": "Activity (mU/ml)", "setting": "miniplasmin [1]", "result": 3.1, "unit": "mU/ml"}
    ]},
    {"compound": "Cc1cc(=O)oc2cc(NC(=O)[C@H](CCCNC(=N)N)NC(=O)[C@@H]3CCCN3C(=O)[C@@H](NC(=O)OC(C)(C)C)C(C)C)ccc12", "note": "[Boc-Val-Pro-Arg-MCA] (Boc-Val-Pro-Arg-{AMC})", "values": [
      {"measurement": "Activity (mU/ml)", "setting": "miniplasmin [1]", "result": 5.0, "unit": "mU/ml"}
    ]},
    {"compound": "Cc1cc(=O)oc2cc(NC(=O)[C@H](CCCNC(=N)N)NC(=O)[C@H](CO)NC(=O)[C@H](Cc3ccccc3)NC(=O)OC(C)(C)C)ccc12", "note": "[Boc-Phe-Ser-Arg-MCA] (Boc-Phe-Ser-Arg-{AMC})", "values": [
      {"measurement": "Activity (mU/ml)", "setting": "miniplasmin [1]", "result": 5.0, "unit": "mU/ml"}
    ]},
    {"compound": "CC(C)CC(NC(=O)C1OC1C(=O)O)C(=O)NCCCCNC(=N)N", "note": "(centres unmarked) [E-64]", "values": [
      {"measurement": "activity at 10 µM", "setting": "miniplasmin [3]; read-out: Relative activity", "result": 61.5, "unit": "%"}
    ]},
    {"compound": "Cc1cc(=O)oc2cc(NC(=O)[C@H](CCCNC(=N)N)NC(=O)[C@@H](NC(=O)[C@H](CC(C)C)NC(=O)OC(C)(C)C)[C@@H](C)O)ccc12", "note": "[Boc-Leu-Thr-Arg-MCA] (Boc-Leu-Thr-Arg-{AMC})", "values": [
      {"measurement": "Activity (mU/ml)", "setting": "miniplasmin [1]", "result": 3.4, "unit": "mU/ml"}
    ]},
    {"compound": "N=C(N)c1ccccc1", "note": "[Benzamidine]", "values": [
      {"measurement": "inhibition mark (circle / double circle)", "setting": "miniplasmin [3]", "result": "○ Benzamidine"},
      {"measurement": "activity at 10 µM", "setting": "miniplasmin [3]; read-out: Relative activity", "result": 67.6, "unit": "%"},
      {"measurement": "activity at 1000 µM", "setting": "miniplasmin [3]; read-out: Relative activity", "result": 22.9, "unit": "%"},
      {"measurement": "transformation of F0 into F1 and F2", "setting": "miniplasmin [4]", "result": "substantially prevented"}
    ]},
    {"compound": "Cc1cc(=O)oc2cc(NC(=O)[C@H](CCCNC(=N)N)NC(=O)[C@H](C)NC(=O)[C@H](CCC(N)=O)NC(=O)OC(C)(C)C)ccc12", "note": "[Boc-Gln-Ala-Arg-MCA] (Boc-Gln-Ala-Arg-{AMC})", "values": [
      {"measurement": "Activity (mU/ml)", "setting": "miniplasmin [1]", "result": 32.3, "unit": "mU/ml"}
    ]},
    {"compound": "CC(C)C[C@H](NP(=O)(O)O[C@@H]1O[C@@H](C)[C@H](O)[C@@H](O)[C@H]1O)C(=O)N[C@@H](Cc1c[nH]c2ccccc12)C(=O)O", "note": "[Phosphoramidon]", "values": [
      {"measurement": "activity at 10 µM", "setting": "miniplasmin [3]; read-out: Relative activity", "result": 100, "unit": "%"}
    ]},
    {"compound": "CC(C)CC(=O)N[C@H](C(=O)N[C@H](C(=O)N[C@@H](CC(C)C)[C@@H](O)CC(=O)N[C@@H](C)C(=O)N[C@@H](CC(C)C)[C@@H](O)CC(=O)O)C(C)C)C(C)C", "note": "[Pepstatin A] (Isovaleryl-VV[Sta]A[Sta]-OH)", "values": [
      {"measurement": "activity at 10 µM", "setting": "miniplasmin [3]; read-out: Relative activity", "result": 64, "unit": "%"}
    ]},
    {"compound": "Cc1cc(=O)oc2cc(NC(=O)[C@H](CCCNC(=N)N)NC(=O)[C@H](CCCCN)NC(=O)CNC(=O)OC(C)(C)C)ccc12", "note": "[Boc-Gly-Lys-Arg-MCA] (Boc-Gly-Lys-Arg-{AMC})", "values": [
      {"measurement": "Activity (mU/ml)", "setting": "miniplasmin [1]", "result": 3.1, "unit": "mU/ml"}
    ]},
    {"compound": "Cc1cc(=O)oc2cc(NC(=O)[C@H](CCCCN)NC(=O)[C@H](CC(C)C)NC(=O)[C@@H](NC(=O)OC(C)(C)C)C(C)C)ccc12", "note": "[Boc-Val-Leu-Lys-MCA] (Boc-Val-Leu-Lys-{AMC})", "values": [
      {"measurement": "Activity (mU/ml)", "setting": "miniplasmin [1]", "result": 17.7, "unit": "mU/ml"},
      {"measurement": "% (Activity as a percentage of that with Boc-Gln-Ala-Arg-MCA)", "setting": "miniplasmin [2]", "result": 54.8, "unit": "%"}
    ]},
    {"compound": "CC(C)C[C@H](NC(=O)[C@@H](NC(=O)N[C@@H](Cc1ccccc1)C(=O)O)C1CCN=C(N)N1)C(=O)N[C@H](C=O)Cc1ccccc1", "note": "(some centres unmarked) [Cymostatin]", "values": [
      {"measurement": "activity at 10 µM", "setting": "miniplasmin [3]; read-out: Relative activity", "result": 100, "unit": "%"}
    ]},
    {"compound": "Cc1cc(=O)oc2cc(NC(=O)[C@H](CCCNC(=N)N)NC(=O)CNC(=O)[C@H](CCC(N)=O)NC(=O)OC(C)(C)C)ccc12", "note": "[Boc-Gln-Gly-Arg-MCA] (Boc-Gln-Gly-Arg-{AMC})", "values": [
      {"measurement": "Activity (mU/ml)", "setting": "miniplasmin [1]", "result": 8.1, "unit": "mU/ml"}
    ]},
    {"compound": "Cc1cc(=O)oc2cc(NC(=O)[C@H](Cc3ccccc3)NC(=O)[C@@H]3CCCN3C(=O)[C@H](C)NC(=O)[C@H](C)NC(=O)CCC(=O)O)ccc12", "note": "[Suc-Ala-Ala-Pro-Phe-MCA] (Suc-AAPF-{AMC})", "values": [
      {"measurement": "Activity (mU/ml)", "setting": "miniplasmin [1]", "result": 0.0, "unit": "mU/ml"}
    ]},
    {"compound": "Cc1cc(=O)oc2cc(NC(=O)[C@H](CCCNC(=N)N)NC(=O)[C@H](CCCNC(=N)N)NC(=O)[C@H](CCC(N)=O)NC(=O)OC(C)(C)C)ccc12", "note": "[Boc-Gln-Arg-Arg-MCA] (Boc-Gln-Arg-Arg-{AMC})", "values": [
      {"measurement": "Activity (mU/ml)", "setting": "miniplasmin [1]", "result": 16.1, "unit": "mU/ml"}
    ]},
    {"compound": "Cc1cc(=O)oc2cc(NC(=O)[C@H](CCCCN)NC(=O)[C@H](CCCCN)NC(=O)[C@H](CCC(=O)O)NC(=O)OC(C)(C)C)ccc12", "note": "[Boc-Glu-Lys-Lys-MCA] (Boc-Glu-Lys-Lys-{AMC})", "values": [
      {"measurement": "Activity (mU/ml)", "setting": "miniplasmin [1]", "result": 50.3, "unit": "mU/ml"},
      {"measurement": "cleaving activity of miniplasmin toward the substrate", "setting": "miniplasmin [1]", "result": "highest cleaving activity"}
    ]}
  ]
}
